Laboratory results as given in article PMC3160846 (PLoS ONE, 2011).

What was measured:
VEGFR1 = biological target: T1, VEGFR1 (Homo sapiens, UniProt P17948); assay: Kinase inhibition assay, VEGFR1; type: biochemical
T1 construct: GST-tagged VEGFR1 (residues R781-I1338); GST; made in house; host or cells: Sf9 insect cells
Procedure: VEGFR1/2 – The recombinant GST-tagged VEGFR1 (residues R781-I1338) or VEGFR2 (residues V789-V1356) containing kinase domain were expressed in Sf9 insect cells. The kinase assay was carried out in 96-well plates with the tested compound at 30°C for 120 min.
Composition of the reaction buffers used in different kinase inhibitory assays is described in Figure S3.
25 mM HEPES pH 7.4, 10 mM MgCl2, 4mM MnCl2, 0.5mM Na3VO4, 2 mM DTT, 0.02% Triton X100, 0.01% BSA, 1 mM ATP, 2 mM polyGlu4:Tyr peptide, 50~100 ng recombinant VEGFR1 or VEGFR2.

HT29 cells = assay: Clonogenic assay, HT29; type: cell-based, Human; conditions: Homo sapiens, HT-29; HT29, colon, p53 mutant, MDR1 negative; read-out: IC50, anti-proliferative activity
Procedure: (§1) Human lung adenocarcinoma A549 cells and NTUB1 bladder cancer cells were maintained in RPMI supplied with 10% fetal bovine serum. […] KB-derived MRP1-expressing cell line, KB-7D, was maintained in growth medium supplemented with 7 µM VP-16.
(§2) Two hundred cells in logarithmic growth phase were seeded in a 6-well plate. The cells were exposed to various concentrations of the test drugs for a three-generation period. At the end of the incubation period, cells were fixed and stained with 50% ethanol containing 0.5% methylene blue for 30 min. The plates were washed five times with water and allowed to air-dry. Colonies were countered manually. […] Each value represents the average of at least three independent experiments run in triplicates.

IM9 cells = assay: Clonogenic assay, IM9; type: cell-based, Human; conditions: Homo sapiens; IM9, lymphoma, p53 wild-type, MDR1 negative; read-out: IC50, anti-proliferative activity
Procedure: as §1, §2

KB-S15 cells = assay: Clonogenic assay, KB-S15; type: cell-based, Human
Procedure: as §1, §2

HCT116 cancer cells = assay: Western blot of phosphor-Aurora kinases and phosphor-Histone H3 in HCT116 cells; type: cell-based
Procedure: (§3) Cells were lysed with ice-cold lysis buffer (10 mM Tris, 1 mM EDTA, 1 mM DTT, 60 mM KCl, 0.5% NP-40 and protease inhibitors). […] The resolved proteins were electrophoretically transferred to PVDF membranes (Amersham Life Science, Amersham, U.K.) for Western blot analysis. The membranes were blocked with 5% non-fat milk at room temperature for two hours, washed twice with TBST (1% Tween) and then incubated with either anti-phosphorylated Aurora-A/-B/-C kinase antibody (#2914S, Cell Signaling Technology, Danvers, MA), anti-Aurora-A and -B kinase antibody (#ab1287 and #ab2254, Abcam, Cambridge, MA), anti-phosphorylated Histone H3 antibody (#9701, Cell Signaling Technology, Danvers, MA), anti-Histone H3 antibody (#9715, Cell Signaling Technology, Danvers, MA), anti-Cyclin B1 antibody or anti-Actin antibody (#sc-245 and #sc-130065, Santa Cruz Biotechnology, Santa Cruz, CA) overnight at 4°C. Membranes were washed twice with TBST then subsequently incubated with a horseradish peroxidase-conjugated secondary antibody (Santa Cruz Biotechnology, Santa Cruz, CA) for 1 hour at room temperature. Immunoreactivity was detected by Enhanced Chemiluminescence (Amersham International, Buckingham, U.K.) and autoradiography. Experiments were repeated independently at least two times.

KB-VIN10 cells [1] = assay: Western blot of Histone H3 phosphorylation and cyclin B1, KB-VIN10; type: cell-based, Human; conditions: for Histone H3 phosphorylation and cyclin B1 expression: KB-VIN10, 48 h, BPR1K653 12, 24, 36 nM, VX680 170 and 255 nM
Procedure: as §3

KB cells = assay: Apoptosis assays (Annexin-V, caspase-3/-7 imaging, TUNEL), KB; type: cell-based, Human; conditions: 48-72 h
Procedure: Cells were cultured in chamber-slides, incubated with test agents for 48 h, and washed twice with PBS. Cells were labeled with Annexin-V-FLUOS reagent (catalog number #11858777001, Roche, Indianapolis, IN) for 30 min at room temperature. The cells were analyzed by fluorescence microscopy.
Caspase-3/-7 activity was analyzed with the MagicRed™ DEVD real-time caspase activity detection kit (catalog number #935, Immunochemistry Technologies LLC, Bloomington, MN). Briefly, cells were cultured in chamber-slides and incubated with test agents for various durations. Cells were then incubated with the Caspase-3/-7 substrate MR-(DEVD2) in culture medium for 1 hour, and then co-incubated with Hoechst 33342 for 15 min. Cells were viewed with a UV-enabled inverted-microscope at an excitation wavelength of 540 nm–560 nm and emission at 610 nm. Experiments were repeated independently at least two times.
Under in vitro conditions, cells were seeded and cultured in 8-well chamber-slides, and treated with various compounds. […] Cells were counterstained with DAPI to detect the nucleus, and examined by fluorescence microscopy. Amount of red fluorescence labeled (DNA fragmented) cells were counted and percentage of apoptotic cells were calculated as follows: Amount of the red fluorescence labeled cells ÷ Total cells available×100. […]

KB-VIN10 cells [2] = assay: Apoptosis assays (Annexin-V, caspase-3/-7 imaging, TUNEL, PARP cleavage), KB-VIN10; type: cell-based, Human; conditions: for apoptosis: phosphatidylserine translocation, caspase-3/-7 activity, DNA fragmentation: KB-VIN10, 48-72 h
Procedure: Cells were lysed with ice-cold lysis buffer (10 mM Tris, 1 mM EDTA, 1 mM DTT, 60 mM KCl, 0.5% NP-40 and protease inhibitors). […] The resolved proteins were electrophoretically transferred to PVDF membranes (Amersham Life Science, Amersham, U.K.) for Western blot analysis. […] Membranes were washed twice with TBST then subsequently incubated with a horseradish peroxidase-conjugated secondary antibody (Santa Cruz Biotechnology, Santa Cruz, CA) for 1 hour at room temperature. Immunoreactivity was detected by Enhanced Chemiluminescence (Amersham International, Buckingham, U.K.) and autoradiography. Experiments were repeated independently at least two times.
The cells were analyzed by fluorescence microscopy.
Briefly, cells were cultured in chamber-slides and incubated with test agents for various durations. […] Cells were viewed with a UV-enabled inverted-microscope at an excitation wavelength of 540 nm–560 nm and emission at 610 nm. Experiments were repeated independently at least two times.
Under in vitro conditions, cells were seeded and cultured in 8-well chamber-slides, and treated with various compounds. The treated cells were washed with PBS, fixed with 4% paraformaldehyde for 30 min on ice, and permeabilized with PBST at room temperature. […] Cells were counterstained with DAPI to detect the nucleus, and examined by fluorescence microscopy. Amount of red fluorescence labeled (DNA fragmented) cells were counted and percentage of apoptotic cells were calculated as follows: Amount of the red fluorescence labeled cells ÷ Total cells available×100. Experiments were repeated independently at least two times.

T1 sequence (P17948 781-1338): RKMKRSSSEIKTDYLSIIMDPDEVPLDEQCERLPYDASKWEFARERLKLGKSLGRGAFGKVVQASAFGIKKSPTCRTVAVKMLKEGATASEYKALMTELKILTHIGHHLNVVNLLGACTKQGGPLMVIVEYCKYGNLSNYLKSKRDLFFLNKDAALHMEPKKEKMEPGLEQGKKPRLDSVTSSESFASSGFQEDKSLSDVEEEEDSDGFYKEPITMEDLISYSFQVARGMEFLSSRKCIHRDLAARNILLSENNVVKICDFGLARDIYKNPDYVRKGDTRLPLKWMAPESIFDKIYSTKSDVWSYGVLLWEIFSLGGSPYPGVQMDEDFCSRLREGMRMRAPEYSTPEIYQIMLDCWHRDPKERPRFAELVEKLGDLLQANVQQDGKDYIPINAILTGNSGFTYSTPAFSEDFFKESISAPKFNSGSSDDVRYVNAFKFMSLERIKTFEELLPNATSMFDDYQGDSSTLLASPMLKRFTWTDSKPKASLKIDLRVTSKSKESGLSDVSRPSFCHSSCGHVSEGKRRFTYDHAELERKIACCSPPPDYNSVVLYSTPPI

Row | Compound | IC50 (VEGFR1) | IC50 (HT29 cells) | IC50 (IM9 cells) | IC50 (KB-S15 cells; Homo sapiens, KB-S15, paclitaxol resistant, MDR1 ↑, read-out: IC50, anti-proliferative activity) | Fold difference as compare to the IC50 in the respective parental cells (KB-S15 cells; KB-S15 vs KB) | phosphor-Aurora-A, -B and -C kinase (HCT116 cancer cells) | phosphor-Histone H3 (Ser10) (HCT116 cancer cells) | Histone H3 phosphorylation and cyclin B1 expression (KB-VIN10 cells [1]) | apoptosis: phosphatidylserine translocation, caspase-3/-7 activity, DNA fragmentation (KB cells) | cleavage of PARP (KB-VIN10 cells [2]; KB-VIN10, 2× IC50 of KB, 72 h, Western blot) | apoptosis: phosphatidylserine translocation, caspase-3/-7 activity, DNA fragmentation (KB-VIN10 cells [2]) | Histone H3 phosphorylation and cyclin B1 expression, with verapamil (KB-VIN10 cells [1]; KB-VIN10, + verapamil 10 µM)
1 | CN(C)Cc1ccccc1NC(=O)Nc1ccc(CCNc2ncnc3oc(-c4ccccc4)c(Cl)c23)cc1 [BPR1K653] | > 10 µM | 0.012 ± 0.002 µM | 0.004 ± 0.002 µM | 0.011 ± 0.004 µM | 1 fold | concentration-dependent decrease | concentration-dependent decrease | inhibition of Histone H3 phosphorylation and down-regulation of cyclin B1 expression | induced the caspase-3/-7 activity and DNA fragmentation | cleavage of PARP was only shown | induced the caspase-3/-7 activity and DNA fragmentation | –
2 | Cc1cc(Nc2cc(N3CCN(C)CC3)nc(Sc3ccc(NC(=O)C4CC4)cc3)n2)[nH]n1 [VX680] | – | 0.16 ± 0.033 µM | 0.031 ± 0.016 µM | – | – | reduced in a concentration-dependent manner | reduced the amount of phosphor-Histone H3 (Ser10) | could not induce the above molecular changes | only induced the translocation of the phosphatidylserine molecule, caspase-3/-7 activity and DNA fragmentation in KB cells | – | not in the MDR1-expressing KB-VIN10 cells | restore the sensitivity to VX680
